23 compounds from ChEMBL document CHEMBL5214962, “Improving lipophilicity of 5-(1-acetyl-5-phenylpyrazolidin-3-ylidene)-1,3-dimethylbarbituric acid increases its efficacy to activate hypoxia-inducible factors” (Bioorg Med Chem, 2022) can be followed below.

Active and inactive are the calls of the source. The rule behind the calls is not given here.

Data set [1] can be described thus: Cytotoxicity against human SK-N-BE(2)-C expressing HRE-NLuc reporter system assessed as reduction in cell viability incubated for 24 hrs by CCK-8 assay. The format is toxicity, cell-based. Conditions: SK-N-BE(2)-C cells expressing HRE-NLuc reporter system, read-out: LC50. (In general: Tetrazolium dyes change colour on reduction, which living cells bring about.)

A further data set relates to SK-N-BE(2)-C. Kind of data set: Activation of HIF-alpha transcriptional activity in human SK-N-BE(2)-C expressing HRE-NLuc reporter system assessed as compound concentration require for 5 fold increase in NLuc luciferase activity incubated for 24 hrs by Nano-Glo luciferase assay. The format is cell-based.
The target in data set [2] is Endothelial PAS domain-containing protein 1 (Homo sapiens) (UniProt Q99814). In words: Induction of HIF-2alpha stabilization in human Hep3B cells assessed as […] at 1 to 100 uM incubated for 24 hrs by immunoblot analysis. The format is cell-based. Conditions: filed as activator, dose 1-100 µM, DDE = dose-dependent effect.
Data set [3] concerns the target Hypoxia-inducible factor 1-alpha (Homo sapiens) (UniProt Q16665). In words: Induction of HIF-1alpha stabilization in human Hep3B cells assessed as HIF-1alpha level at 1 to 100 uM incubated for 24 hrs by immunoblot analysis. The format is cell-based. Conditions: filed as activator, dose 1-100 µM, DDE = dose-dependent effect. In general terms: A western blot detects proteins with antibodies after separation by electrophoresis.

The target is the same in data set [4]. In words: Induction of HIF-1alpha stabilization in human Hep3B cells assessed as HIF-1alpha level at 16 to 1000 nM incubated for 24 hrs by immunoblot analysis. Conditions: filed as activator, dose 16-1000 nM, DDE = dose-dependent effect. The format is cell-based.
Data set [5] relates to Hep3B. In words: Activation of HIF dependent pathway in human Hep3B cells assessed as increase in CA9 mRNA expression level at 10 to 100 uM incubated for 24 hrs by RT-qPCR analysis. Conditions: filed as activator, dose 10-100 µM. The format is cell-based.
For data set [6], the system named is Hep3B. Kind of data set: Activation of HIF dependent pathway in human Hep3B cells assessed as increase in EPO mRNA expression level at 10 to 100 uM incubated for 24 hrs by RT-qPCR analysis. The format is cell-based. Conditions: filed as activator, dose 10-100 µM. A general note: Quantitative PCR measures a nucleic acid by following its amplification.
For data set [7], the target named is Endothelial PAS domain-containing protein 1 (Homo sapiens) (UniProt Q99814). Kind of data set: Induction of HIF-2alpha stabilization in human Hep3B cells assessed as […] at 16 to 1000 nM incubated for 24 hrs by immunoblot analysis. The format is cell-based. Conditions: filed as activator, dose 16-1000 nM, DDE = dose-dependent effect.

Sequence of Endothelial PAS domain-containing protein 1 (Homo sapiens) (Q99814 whole entry, the tested form may be a part): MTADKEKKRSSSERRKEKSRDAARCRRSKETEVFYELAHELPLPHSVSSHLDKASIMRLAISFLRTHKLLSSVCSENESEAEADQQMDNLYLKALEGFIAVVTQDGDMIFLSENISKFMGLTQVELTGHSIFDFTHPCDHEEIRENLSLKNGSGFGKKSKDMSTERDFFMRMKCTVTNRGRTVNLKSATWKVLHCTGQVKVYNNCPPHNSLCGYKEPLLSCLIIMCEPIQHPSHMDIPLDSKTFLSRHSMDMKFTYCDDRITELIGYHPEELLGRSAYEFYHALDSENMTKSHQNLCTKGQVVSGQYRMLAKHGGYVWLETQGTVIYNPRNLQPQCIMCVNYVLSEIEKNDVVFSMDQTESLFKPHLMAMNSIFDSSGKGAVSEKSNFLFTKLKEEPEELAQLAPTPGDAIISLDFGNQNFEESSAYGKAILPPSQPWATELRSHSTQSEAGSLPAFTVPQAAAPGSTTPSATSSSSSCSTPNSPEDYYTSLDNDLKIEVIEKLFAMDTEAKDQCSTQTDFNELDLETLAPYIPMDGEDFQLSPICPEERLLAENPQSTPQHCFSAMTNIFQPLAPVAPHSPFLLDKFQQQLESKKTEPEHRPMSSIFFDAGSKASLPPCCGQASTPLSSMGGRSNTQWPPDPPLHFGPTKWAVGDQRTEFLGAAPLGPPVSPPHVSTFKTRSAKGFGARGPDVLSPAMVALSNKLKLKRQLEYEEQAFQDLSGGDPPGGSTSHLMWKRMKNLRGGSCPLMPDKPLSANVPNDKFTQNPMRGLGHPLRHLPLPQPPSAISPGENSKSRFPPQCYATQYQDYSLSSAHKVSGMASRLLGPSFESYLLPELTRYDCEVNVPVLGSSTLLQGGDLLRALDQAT
Sequence of Hypoxia-inducible factor 1-alpha (Homo sapiens) (Q16665 whole entry, looked up): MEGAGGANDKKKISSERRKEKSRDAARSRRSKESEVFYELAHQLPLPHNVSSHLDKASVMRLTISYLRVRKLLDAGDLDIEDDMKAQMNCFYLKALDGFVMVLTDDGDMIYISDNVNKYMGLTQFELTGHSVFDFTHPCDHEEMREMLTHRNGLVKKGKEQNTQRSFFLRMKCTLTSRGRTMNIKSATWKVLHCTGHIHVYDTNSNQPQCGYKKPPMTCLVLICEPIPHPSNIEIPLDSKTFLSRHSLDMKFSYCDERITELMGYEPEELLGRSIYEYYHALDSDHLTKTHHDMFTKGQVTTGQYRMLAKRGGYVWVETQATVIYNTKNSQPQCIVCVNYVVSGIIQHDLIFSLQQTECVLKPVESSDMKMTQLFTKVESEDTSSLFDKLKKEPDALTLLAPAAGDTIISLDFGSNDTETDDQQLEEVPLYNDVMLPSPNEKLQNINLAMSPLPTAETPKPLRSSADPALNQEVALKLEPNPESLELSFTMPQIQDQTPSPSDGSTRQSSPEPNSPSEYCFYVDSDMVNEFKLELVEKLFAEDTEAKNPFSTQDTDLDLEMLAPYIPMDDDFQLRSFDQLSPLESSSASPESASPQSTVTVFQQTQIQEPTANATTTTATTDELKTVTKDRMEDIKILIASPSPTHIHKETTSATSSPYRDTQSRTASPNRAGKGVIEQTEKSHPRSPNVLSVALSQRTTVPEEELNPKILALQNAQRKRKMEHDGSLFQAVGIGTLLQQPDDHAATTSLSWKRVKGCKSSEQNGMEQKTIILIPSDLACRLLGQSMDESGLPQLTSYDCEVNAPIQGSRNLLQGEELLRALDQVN

As to `CC(=O)N1NC(=C2C(=O)N(C)C(=O)N(C)C2=O)CC1c1ccc(Cl)cc1` (centres undefined), the CC50 at 24 h in data set [1] is more than 100 µM. For the same compound, the Activity in the data set on SK-N-BE(2)-C (filed as activator) came to 9.1 µM.
Regarding `CCCCCC(=O)N1NC(=C2C(=O)N(C3CCCCC3)C(=O)N(C3CCCCC3)C2=O)CC1c1ccccc1` (centres undefined), in data set [1], the CC50 at 24 h was more than 100 µM. Further, the Activity in the data set with SK-N-BE(2)-C (filed as activator) was determined as 2.41 µM.
For `CC(=O)N1NC(=C2C(=O)N(C3CCCCC3)C(=O)N(C3CCCCC3)C2=O)CC1c1ccccc1` (centres undefined), in that order: more than 100 µM and 0.533 µM.
With `CC(=O)N1NC(=C2C(=O)N(C)C(=O)N(C)C2=O)CC1c1ccc(C)cc1` (centres undefined), the CC50 at 24 h in data set [1] was more than 100 µM. Moreover, the Activity with SK-N-BE(2)-C (filed as activator) was 5.84 µM.
In the case of `CC(=O)N1NC(=C2C(=O)N(C)C(=O)N(C)C2=O)CC1c1ccc(Oc2ccccc2)cc1` (centres undefined), in data set [1], the CC50 at 24 h is more than 100 µM. Moreover, the Activity in the data set with SK-N-BE(2)-C (filed as activator) was determined as 6.82 µM.
For `CCC(=O)N1NC(=C2C(=O)N(C)C(=O)N(C)C2=O)CC1c1ccccc1` (centres undefined), in that order: more than 100 µM and 6.53 µM.
As to `CCC(=O)N1NC(=C2C(=O)N(C3CCCCC3)C(=O)N(C3CCCCC3)C2=O)CC1c1ccccc1` (centres undefined), the CC50 at 24 h in data set [1] is more than 100 µM. Moreover, in the data set on SK-N-BE(2)-C (filed as activator), the Activity was 0.126 µM.
For `CC(C)C(=O)N1NC(=C2C(=O)N(C3CCCCC3)C(=O)N(C3CCCCC3)C2=O)CC1c1ccccc1` (centres undefined) the same measures were more than 100 µM and 0.364 µM.
In the case of `Cc1nc(C(=O)NCC(=O)O)c(O)c2ccc(Oc3ccccc3)cc12`, the Activity result in data set [2] and in data set [3] was “Dde” each time.
`CC(=O)N1NC(=C2C(=O)N(C)C(=O)N(C)C2=O)CC1c1ccccc1` (centres undefined): the figures for the Activity entry (in data set [2]; in data set [3]; with SK-N-BE(2)-C (filed as activator)) were “Dde”, “Dde” and 14.3 µM, respectively. Moreover, in data set [1], the CC50 at 24 h is more than 100 µM.
As for `CCCCCCCCc1ccc(C2CC(=C3C(=O)N(C)C(=O)N(C)C3=O)NN2C(C)=O)cc1` (centres undefined), the CC50 at 24 h in data set [1] is more than 100 µM. Moreover, in the data set on SK-N-BE(2)-C (filed as activator), the Activity is 12.9 µM.
Take `CC(=O)N1NC(=C2C(=O)N(C)C(=O)N(C)C2=O)CC1c1ccc(-c2ccccc2)cc1` (centres undefined): the CC50 at 24 h in data set [1] was more than 100 µM. The Activity with SK-N-BE(2)-C (filed as activator) was 3.88 µM.
For `CC(=O)N1NC(=C2C(=O)N(C)C(=O)N(C)C2=O)CC1c1ccc2ccccc2c1` (centres undefined), in that order: more than 100 µM and 7.67 µM.
Regarding `CCC(=O)N1NC(=C2C(=O)N(C)C(=O)N(C)C2=O)CC1c1ccc(-c2ccccc2)cc1` (centres undefined), the CC50 at 24 h in data set [1] is more than 100 µM. For the same compound, in the data set with SK-N-BE(2)-C (filed as activator), the Activity is 3.87 µM.
For `COc1cccc(C2CC(=C3C(=O)N(C)C(=O)N(C)C3=O)NN2C(C)=O)c1Cl` (centres undefined), in that order: more than 100 µM and 26.1 µM.
For the compound `CCCCCCCCCC(=O)N1NC(=C2C(=O)N(C3CCCCC3)C(=O)N(C3CCCCC3)C2=O)CC1c1ccccc1` (centres undefined), the CC50 at 24 h in data set [1] is more than 100 µM. For the same compound, in the data set with SK-N-BE(2)-C, the Activity was more than 100 µM.
As to `CC(=O)N1NC(=C2C(=O)N(C)C(=O)N(C)C2=O)CC1c1ccc(F)cc1` (centres undefined), the CC50 at 24 h in data set [1] was more than 100 µM. In addition, the Activity in the data set on SK-N-BE(2)-C (filed as activator) is 16.5 µM.
As for `CCCCCC(=O)N1NC(=C2C(=O)N(C)C(=O)N(C)C2=O)CC1c1ccccc1` (centres undefined), the CC50 at 24 h in data set [1] is more than 100 µM. Besides, the Activity in the data set on SK-N-BE(2)-C (filed as activator) was determined as 0.96 µM.
For `CC(C)C(=O)N1NC(=C2C(=O)N(C)C(=O)N(C)C2=O)CC1c1ccccc1` (centres undefined) the same measures were more than 100 µM and 8.55 µM.
As to `CCCC(=O)N1NC(=C2C(=O)N(C)C(=O)N(C)C2=O)CC1c1ccccc1` (centres undefined), the CC50 at 24 h in data set [1] is more than 100 µM. Also, the Activity in the data set on SK-N-BE(2)-C (filed as activator) came out at 4.85 µM.
For `CCCCCCCCCC(=O)N1NC(=C2C(=O)N(C)C(=O)N(C)C2=O)CC1c1ccccc1` (centres undefined), in that order: more than 100 µM and 0.153 µM.
With `CCCC(=O)N1NC(=C2C(=O)N(C3CCCCC3)C(=O)N(C3CCCCC3)C2=O)CC1c1ccccc1` (centres undefined), the Activity entry in data set [2] is “Dde”; in data set [4] it was “Dde”; in data set [3], “Dde”; in the data set on SK-N-BE(2)-C (filed as activator), 0.441 µM; in data set [7] it was “Dde”. Also, the result in the data set on Hep3B [5] and in the data set on Hep3B [6] was Active. Moreover, the CC50 at 24 h in data set [1] is more than 100 µM.
In the case of `COc1ccc(C2CC(=C3C(=O)N(C)C(=O)N(C)C3=O)NN2C(C)=O)cc1` (centres undefined), the CC50 at 24 h in data set [1] is more than 100 µM. The Activity with SK-N-BE(2)-C (filed as activator) turned out to be 19.5 µM.
